For one assay, the target named is T1, c-kit (Homo sapiens, UniProt P10721).
T1 construct: MO7e (human megakaryocytic leukemia cell line) which had been arrested for 20 hr; endogenous in cells; host or cells: MO7e human megakaryocytic leukemia cell line
As to the kind of experiment: Inhibitory activity against c-kit autophosphorylation (MO7e cells, h-SCF). Format: cell-based. The note with it: for inhibition at 1 µM: Mo7e, figure within parentheses in −( ) or >1000( ), at 1000 nM; for IC50: MO7e cells, 50 ng/ml h-SCF, read-out: c-kit IC50. In short, it runs like this: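 Growth-arrested (20 hr) MO7e; cpd in DMSO, 1 hr; h-SCF 50 ng/ml, 5 min; lyse. ELISA: anti-pTyr (PY-20) capture, anti-c-kit 1° Ab, HRP anti-rabbit 2° Ab, A450.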

Another assay concerns the target T2, PDGF-Ra (Homo sapiens, UniProt P16234).
T2 construct: host or cells: G-292 human osteosarcoma cells
The experiment in a line: Inhibitory activity against PDGF-Ra phosphorylation by PDGF-AA stimulation using G292. Format: cell-based. The note with it: for IC50: > means inhibition at indicated concentration not more than 50%, < and << not less than 50%, read-out: PDGF (E) IC50; for inhibition at 0.1 µM: G292, figure within parentheses in >100( ), at 100 nM, read-out: PDGF (E) inhibition (%) at 100 nM. In short, it runs like this:
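Read-out: A450 from a sandwich ELISA (PY-20 capture, anti-PDGF-Ra detection, peroxidase colour) of lysates from G-292 cells given compound for 1 hr at 37 °C before a 5 min challenge with PDGF-AA at 50 ng/ml.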

Some results are limits rather than exact numbers.

T2 sequence (P16234 24-1089): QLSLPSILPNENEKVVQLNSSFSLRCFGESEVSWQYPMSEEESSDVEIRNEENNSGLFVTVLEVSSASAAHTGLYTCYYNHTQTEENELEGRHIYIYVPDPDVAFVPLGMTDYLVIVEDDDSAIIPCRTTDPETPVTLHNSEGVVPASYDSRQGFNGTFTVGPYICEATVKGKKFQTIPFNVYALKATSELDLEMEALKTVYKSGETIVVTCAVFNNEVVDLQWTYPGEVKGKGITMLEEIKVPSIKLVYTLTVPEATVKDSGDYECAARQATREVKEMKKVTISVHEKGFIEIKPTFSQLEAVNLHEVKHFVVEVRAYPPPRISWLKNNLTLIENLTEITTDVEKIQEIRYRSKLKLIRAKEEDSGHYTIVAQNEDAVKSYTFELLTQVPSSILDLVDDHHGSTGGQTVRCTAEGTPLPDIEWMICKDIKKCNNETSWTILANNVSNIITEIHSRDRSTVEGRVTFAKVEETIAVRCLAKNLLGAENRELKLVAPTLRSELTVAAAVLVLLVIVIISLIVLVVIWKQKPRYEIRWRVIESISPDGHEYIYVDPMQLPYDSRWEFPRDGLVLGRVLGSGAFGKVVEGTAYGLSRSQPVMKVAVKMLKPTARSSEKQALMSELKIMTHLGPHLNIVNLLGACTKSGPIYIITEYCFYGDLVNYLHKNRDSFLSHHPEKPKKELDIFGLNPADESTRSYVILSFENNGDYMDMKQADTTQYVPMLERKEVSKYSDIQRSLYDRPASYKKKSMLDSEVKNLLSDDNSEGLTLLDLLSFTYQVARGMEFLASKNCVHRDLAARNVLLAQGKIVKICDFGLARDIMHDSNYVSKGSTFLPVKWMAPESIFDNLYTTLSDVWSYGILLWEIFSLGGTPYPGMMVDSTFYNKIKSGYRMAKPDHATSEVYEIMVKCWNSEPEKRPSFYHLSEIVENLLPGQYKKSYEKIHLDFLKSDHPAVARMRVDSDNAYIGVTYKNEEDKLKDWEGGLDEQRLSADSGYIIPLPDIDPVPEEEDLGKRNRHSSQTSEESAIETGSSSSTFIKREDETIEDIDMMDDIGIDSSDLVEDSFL
T1 sequence (P10721 26-976): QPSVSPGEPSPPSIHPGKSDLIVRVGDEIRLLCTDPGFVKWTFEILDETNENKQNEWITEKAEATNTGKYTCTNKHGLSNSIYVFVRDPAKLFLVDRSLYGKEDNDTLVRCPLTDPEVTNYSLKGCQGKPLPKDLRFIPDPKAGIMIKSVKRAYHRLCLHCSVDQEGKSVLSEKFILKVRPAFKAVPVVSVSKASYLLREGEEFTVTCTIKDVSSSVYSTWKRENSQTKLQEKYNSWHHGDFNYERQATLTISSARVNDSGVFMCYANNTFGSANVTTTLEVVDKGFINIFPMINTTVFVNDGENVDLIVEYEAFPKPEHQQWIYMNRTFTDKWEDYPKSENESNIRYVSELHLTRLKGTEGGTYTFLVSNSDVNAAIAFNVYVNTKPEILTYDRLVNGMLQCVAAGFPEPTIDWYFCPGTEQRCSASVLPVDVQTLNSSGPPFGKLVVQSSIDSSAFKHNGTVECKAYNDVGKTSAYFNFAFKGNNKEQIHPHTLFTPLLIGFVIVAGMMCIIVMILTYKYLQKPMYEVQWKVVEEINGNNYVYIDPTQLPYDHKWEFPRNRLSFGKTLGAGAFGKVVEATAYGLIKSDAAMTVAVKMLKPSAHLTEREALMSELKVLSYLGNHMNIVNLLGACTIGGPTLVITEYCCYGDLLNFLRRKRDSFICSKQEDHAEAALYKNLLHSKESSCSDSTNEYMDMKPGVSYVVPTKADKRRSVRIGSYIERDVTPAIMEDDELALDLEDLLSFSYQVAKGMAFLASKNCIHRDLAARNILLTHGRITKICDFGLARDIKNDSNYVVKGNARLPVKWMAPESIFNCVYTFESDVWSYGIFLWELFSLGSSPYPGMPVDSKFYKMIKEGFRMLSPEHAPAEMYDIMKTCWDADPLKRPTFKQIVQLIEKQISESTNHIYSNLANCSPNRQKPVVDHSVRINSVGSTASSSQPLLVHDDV

Consider `COc1cc2ncnc(Oc3ccc(NC(=O)NC4CCN(Cc5ccc(C(C)(C)C)cc5)C4)cc3)c2cc1OC` (centres unmarked) [Example 583, N-{1-[4-(Tert-butyl)benzyl]tetrahydro-1H-3-pyrrolyl}-N′-{4-[(6,7-dimethoxy-4-quinazolinyl)oxy]phenyl}urea], for which the inhibition at 1 µM at c-kit was 18%. Moreover, at PDGF-Ra, the IC50 is over 100 nM and the inhibition at 0.1 µM turned out to be 17%.
The like results for `COc1cc2ncnc(Oc3ccc(NC(=O)NC4CCN(Cc5ccc(C(C)(C)C)cc5)C4)c([N+](=O)[O-])c3)c2cc1OC` (centres unmarked) [Example 584, N-{1-[4-(Tert-butyl)benzyl]tetrahydro-1H-3-pyrrolyl}-N′-{4-[(6,7-dimethoxy-4-quinazolinyl)oxy]-2-nitrophenyl}urea] were, in that order, 13%, over 100 nM and 13%.
For the compound `COc1cc2ncnc(Oc3ccc(NC(=O)NC4CCN(CC5CCCCC5)C4)cc3)c2cc1OC` (centres unmarked) [Example 586, N-[1-(Cyclohexylmethyl)tetrahydro-1H-3-pyrrolyl]-N′-{4-[(6,7-dimethoxy-4-quinazolinyl)oxy]phenyl}urea], the results for the IC50 at c-kit and at PDGF-Ra were 734 nM and 63 nM, respectively.
Take `COc1cc2ncnc(Oc3ccc(NC(=O)NC4CCN(CC5CCCCC5)C4)c([N+](=O)[O-])c3)c2cc1OC` (centres unmarked) [Example 587, N-[1-(Cyclohexylmethyl)tetrahydro-1H-3-pyrrolyl]-N′-{4-[(6,7-dimethoxy-4-quinazolinyl)oxy]-2-nitrophenyl}urea]: the inhibition at 1 µM on c-kit stood at 16%. The IC50 on PDGF-Ra worked out at 67 nM.
`CCN(CC)CCNC(=S)Nc1ccc(Oc2ccnc3cc(OC)c(OC)cc23)cc1` [Example 589, N-{4-[(6,7-Dimethoxy-4-quinolyl)oxy]phenyl}-N′-(2-diethylaminoethyl)thiourea]: the IC50 on c-kit was determined as 487 nM; at PDGF-Ra, 28 nM.
On the same counts, the results for `COc1cc2ncnc(Oc3ccc(NC(=O)NC4CCN(Cc5ccccc5)CC4)cc3)c2cc1OC` [Example 591, N-{4-[(6,7-Dimethoxy-4-quinazolinyl)oxy]phenyl}-N′-[4-(N-benzyl)piperidinyl]urea] are 117 nM and 33 nM.
The like results for `COc1cc2nccc(Oc3ccc(NC(=O)NN4CCCCC4)cc3)c2cc1OC` [Example 592, N-{4-[(6,7-Dimethoxy-4-quinolyl)oxy]phenyl}-N′-(1-piperidinyl)urea] were, in that order, 472 nM and 23 nM.
Regarding `COc1cc2nccc(Oc3ccc(NC(=O)NN4CCCCC4)c([N+](=O)[O-])c3)c2cc1OC` [Example 594, N-{4-[(6,7-Dimethoxy-4-quinolyl)oxy]-2-nitrophenyl}-N′-(1-piperidinyl)urea], the inhibition at 1 µM at c-kit turned out to be 10%. At PDGF-Ra, the IC50 was over 100 nM and the inhibition at 0.1 µM was found to be 39%.
For `COc1cc(Oc2ncnc3cc(OC)c(OC)cc23)ccc1NC(=O)NN1CCCCC1` [Example 596, N-{4-[(6,7-Dimethoxy-4-quinazolinyl)oxy]-2-methoxyphenyl}-N′-(1-piperidinyl)urea], the figures for the IC50 at c-kit and on PDGF-Ra were 719 nM and 63 nM, respectively.
On to `COc1cc2ncnc(Oc3ccc(NC(=O)NN4CCCCC4)c([N+](=O)[O-])c3)c2cc1OC` [Example 597, N-{4-[(6,7-Dimethoxy-4-quinazolinyl)oxy]-2-nitrophenyl}-N′-(1-piperidinyl)urea], for which, at c-kit, the inhibition at 1 µM came to 8%. Also, at PDGF-Ra, the IC50 was over 100 nM and the inhibition at 0.1 µM is 27%.
In the case of `COc1cc(Oc2ccnc3cc(OC)c(OC)cc23)ccc1NC(=O)NN1CCCCC1` [Example 598, N-{4-[(6,7-Dimethoxy-4-quinolyl)oxy]-2-methoxyphenyl}-N′-(1-piperidinyl)urea], the figures for the 50% inhibitory concentration (IC50) at c-kit and on PDGF-Ra were 423 nM and 19 nM, respectively.
With `COc1cc2ncnc(Oc3ccc(NC(=O)NN4CCCCCC4)cc3)c2cc1OC` [Example 602, N-{4-[(6,7-Dimethoxy-4-quinazolinyl)oxy]phenyl}-N′-(1-homopiperidinyl)urea], the IC50 at c-kit turned out to be 180 nM; on PDGF-Ra it was 11 nM.
Take `COc1cc2ncnc(Oc3ccc(NC(=O)NN4CCCCC4)cc3)c2cc1OC` [Example 603, N-{4-[(6,7-Dimethoxy-4-quinazolinyl)oxy]phenyl}-N′-(1-piperidinyl)urea]: the IC50 on c-kit was 864 nM. Also, on PDGF-Ra, the IC50 is over 100 nM and the inhibition at 0.1 µM stood at 42%.
Consider `COc1cc2nccc(Oc3ccc(NC(=O)NC4CCN(Cc5ccccc5)C4)c(C)c3C)c2cc1OC` (centres unmarked) [Example 604, N-{4-[(6,7-Dimethoxy-4-quinolyl)oxy]-2,3-dimethylphenyl}-N′-[4-(N-benzyl)piperidinyl]urea], for which the half-maximal inhibitory concentration (IC50) at c-kit was found to be 322 nM; at PDGF-Ra, 73 nM.
On the same counts, the results for `COc1cc2ncnc(Oc3ccc(NC(=O)NC4CCN(Cc5ccccc5)CC4)c([N+](=O)[O-])c3)c2cc1OC` [Example 606, N-{4-[(6,7-Dimethoxy-4-quinazolinyl)oxy]-2-nitrophenyl}-N′-[4-(N-benzyl)piperidinyl]urea] are 263 nM and 18 nM.
On the same counts, the results for `COc1cc(Oc2ccnc3cc(OC)c(OC)cc23)ccc1NC(=O)NC1CCN(Cc2ccccc2)CC1` [Example 607, N-{4-[(6,7-Dimethoxy-4-quinolyl)oxy]-2-methoxyphenyl}-N′-[4-(N-benzyl)piperidinyl]urea] are 554 nM and 29 nM.
Take `COc1cc2nccc(Oc3ccc(NC(=O)NN4CCCCCC4)cc3)c2cc1OC` [Example 608, N-{4-[(6,7-Dimethoxy-4-quinolyl)oxy]phenyl}-N′-(1-homopiperidinyl)urea]: the values for the half-inhibitory concentration (IC50) on c-kit and on PDGF-Ra were 201 nM and under 10 nM, respectively.
On the same counts, the results for `COc1cc2nccc(Oc3cc(C)c(NC(=O)NCCN4CCOCC4)cc3C)c2cc1OC` [Example 616, N-{4-[(6,7-Dimethoxy-4-quinolyl)oxy]-2,5-dimethylphenyl}-N′-(2-morpholinoethyl)urea] are 224 nM and 36 nM.
The like results for `COc1cc2nccc(Oc3ccc(NC(=O)NCCN4CCOCC4)c(C)c3C)c2cc1OC` [Example 617, N-{4-[(6,7-Dimethoxy-4-quinolyl)oxy]-2,3-dimethylphenyl}-N′-(2-morpholinoethyl)urea] were, in that order, 172 nM and under 10 nM.
The like results for `COc1cc2nccc(Oc3ccc(NC(=O)NCCN4CCCC4)cc3)c2cc1OC` [Example 618, N-{4-[(6,7-Dimethoxy-4-quinolyl)oxy]phenyl}-N′-(2-tetrahydro-1H-1-pyrrolylethyl)urea] were, in that order, 948 nM and under 10 nM.
For the compound `COc1cc2nccc(Oc3cc(C)c(NC(=O)NCCN4CCCC4)cc3C)c2cc1OC` [Example 619, N-{4-[(6,7-Dimethoxy-4-quinolyl)oxy]-2,5-dimethylphenyl}-N′-(2-tetrahydro-1H-1-pyrrolylethyl)urea], on c-kit, the inhibition at 1 µM turned out to be 44%. On PDGF-Ra, the IC50 is over 100 nM and the inhibition at 0.1 µM was determined as 49%.
Regarding `COc1cc2nccc(Oc3ccc(NC(=O)NCCN4CCCC4)c(C)c3C)c2cc1OC` [Example 620, N-{4-[(6,7-Dimethoxy-4-quinolyl)oxy]-2,3-dimethylphenyl}-N′-(2-tetrahydro-1H-1-pyrrolylethyl)urea], the results for the IC50 at c-kit and at PDGF-Ra were 519 nM and under 10 nM, respectively.

The values are drawn from patent US7135466B2 (Kirin Beer Kabushiki Kaisha, priority 1999, dated 2006).
